This passage reports IC50 results from patent publication US8487108B2, “Piperidinyl carbamate intermediates for the synthesis of aspartic protease inhibitors” (Vitae Pharmaceuticals, Inc., priority 2005, dated 2013).

pIC50: −log10 of the molar value.

This assay deals with T1, trypsin-activated recombinant human renin (Homo sapiens, UniProt P00797).
T1 sequence (P00797 67-406): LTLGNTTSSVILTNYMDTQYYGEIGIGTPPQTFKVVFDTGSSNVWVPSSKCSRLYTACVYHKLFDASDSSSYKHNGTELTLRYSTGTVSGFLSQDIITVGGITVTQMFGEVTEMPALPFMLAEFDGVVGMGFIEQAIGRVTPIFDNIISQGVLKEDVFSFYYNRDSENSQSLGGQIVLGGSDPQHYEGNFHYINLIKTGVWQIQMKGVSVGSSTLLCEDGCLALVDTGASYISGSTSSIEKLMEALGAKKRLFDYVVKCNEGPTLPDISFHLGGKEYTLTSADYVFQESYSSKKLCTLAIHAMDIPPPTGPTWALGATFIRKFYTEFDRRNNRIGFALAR
Briefly: Renin fluorescence assay (internally quenched peptide substrate). The class given is biochemical. The note with it: compounds I*. In outline: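 Cleavage of an angiotensinogen-derived DABCYL-quenched peptide by trypsin-activated recombinant human renin (0.2-2 nM final) in 50 mM BES, 150 mM NaCl, 0.25 mg/mL BSA, pH 7.0; compounds 10 μM to 1 nM final. Fluorescence (ex 340/em 495 nm) followed 60-360 min at rt; linear-slope rates give percent inhibition versus uninhibited control.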
Broadly, the pIC50 is the negative decadic logarithm of the IC50, by convention in mol/L. On to `CNC[C@H](CC1CCCCC1)NC(=O)N1CCC[C@@H]([C@@H](OCCNC(=O)OC)c2cccs2)C1` [I*-9a, methyl 2-((R)-((R)-1-((S)-1-cyclohexyl-3-(methylamino)propan-2-ylcarbamoyl)piperidin-3-yl)(thiophen-2-yl)methoxy)ethylcarbamate], for which the pIC50 is more than 9.00.

For the molecule `CNC[C@H](C[C@@H]1CCCOCC1)NC(=O)N1CCC[C@@H]([C@@H](OCCNC(=O)OC)c2cccc(Cl)c2)C1` [I*-99a, methyl 2-((R)-(3-chlorophenyl)((R)-1-((S)-1-(methylamino)-3-((S)-oxepan-4-yl)propan-2-ylcarbamoyl)piperidin-3-yl)methoxy)ethylcarbamate], the pIC50 is more than 8.00.

Take `CNC[C@H](C[C@H]1CCCCOC1)NC(=O)N1CCC[C@@H]([C@@H](OCCNC(=O)OC)c2ccccc2)C1` [I*-21a, Methyl 2-((R)—((R)-1-((S)-1-(methylamino)-3-((R)-oxepan-3-yl)propan-2-ylcarbamoyl)piperidin-3-yl)(phenyl)methoxy)ethylcarbamate]: the pIC50 was more than 8.00.

With `CNC[C@H](CC1CCCC1)NC(=O)N1CCC[C@@H]([C@@H](OCCNC(=O)OC)c2cccc(Cl)c2)C1` [I*-29a, methyl 2-((R)-(3-chlorophenyl)((R)-1-((S)-1-cyclopentyl-3-(methylamino)propan-2-ylcarbamoyl)piperidin-3-yl)methoxy)ethylcarbamate], the pIC50 was more than 9.00.

For `CN[C@H](CNC(=O)N1CCC[C@@H]([C@@H](OCCNC(=O)OC)c2cc(F)cc(Cl)c2)C1)C[C@H]1CCCCOC1` [I*-143a, methyl 2-((R)-(3-chloro-5-fluorophenyl)((R)-1-((S)-2-(methylamino)-3-((R)-oxepan-3-yl)propylcarbamoyl)piperidin-3-yl)methoxy)ethylcarbamate], the pIC50 was more than 9.00.

Turning to `CNC[C@H](CC12CC3CC(CC(C3)C1)C2)NC(=O)N1CCC[C@@H]([C@@H](OCCNC(=O)OC)c2cc(F)ccc2F)C1` [I*-152a, methyl 2-((R)-((R)-1-((S)-1-(1-adamantyl)-3-(methylamino)propan-2-ylcarbamoyl)piperidin-3-yl)(2,5-difluorophenyl)methoxy)ethylcarbamate], the pIC50 was more than 8.00.

For the molecule `CNC[C@H](CC1CCOCC1)NC(=O)N1CCC[C@@H]([C@@H](OCCNC(=O)OC)c2cccc(F)c2)C1` [I*-26a, methyl 2-((R)-(3-fluorophenyl)((R)-1-((S)-1-(methylamino)-3-(tetrahydro-2H-pyran-4-yl)propan-2-ylcarbamoyl)piperidin-3-yl)methoxy)ethylcarbamate], the pIC50 is more than 7.30.

Regarding `CCC(C)(C)C[C@@H](CNC)NC(=O)N1CCC[C@@H]([C@@H](OCCNC(=O)OC)c2cccc(Cl)c2)C1` [I*-34a, methyl 2-((R)-(3-chlorophenyl)((R)-1-((S)-4,4-dimethyl-1-(methylamino)hexan-2-ylcarbamoyl)piperidin-3-yl)methoxy)ethylcarbamate], the pIC50 is more than 8.00.

With `CNC[C@H](CC1CCCCC1)NC(=O)N1CCC[C@H]([C@@H](OCCNC(=O)OC)c2c(C)ccc(F)c2F)C1` [I*-97a, methyl 2-((R)-((S)-1-((S)-1-cyclohexyl-3-(methylamino)propan-2-ylcarbamoyl)piperidin-3-yl)(2,3-difluoro-6-methylphenyl)methoxy)ethylcarbamate], the pIC50 is more than 7.70.

Regarding `CNC[C@H](C[C@H]1CCCOCC1)NC(=O)N1CCC[C@@H]([C@@H](OCCNC(=O)OC)c2cccc(Cl)c2)C1` [I*-98a, methyl 2-((R)-(3-chlorophenyl)((R)-1-((S)-1-(methylamino)-3-((R)-oxepan-4-yl)propan-2-yl-carbamoyl)piperidin-3-yl)methoxy)ethylcarbamate], the pIC50 was more than 8.00.

Consider `CCC(C)(C)C[C@@H](CNC)NC(=O)N1CCC[C@@H]([C@@H](OCCNC(=O)OC)c2cccc(F)c2)C1` [I*-7a, methyl 2-((R)-((R)-1-((S)-4,4-dimethyl-1-(methylamino)hexan-2-ylcarbamoyl)piperidin-3-yl)(3-fluorophenyl)methoxy)ethylcarbamate], for which the negative-log IC50 (pIC50) was more than 8.00.

For the molecule `CN[C@H](C)[C@H](CC1CCCCC1)NC(=O)N1CCC[C@@H]([C@@H](OCCNC(=O)OC)c2cccc(Cl)c2)C1` [I*-82a, methyl 2-((R)-(3-chlorophenyl)((R)-1-((2S,3R)-1-cyclohexyl-3-(methylamino)butan-2-ylcarbamoyl)piperidin-3-yl)methoxy)ethylcarbamate], the pIC50 was more than 9.00.

As to `CNC[C@H](CC1CCCCC1)NC(=O)N1CCC[C@@H]([C@@H](OCCCC(=O)NC)c2cccc(Cl)c2)C1` [I*-45a, (R)-3-((R)-(3-chlorophenyl)(4-(methylamino)-4-oxobutoxy)methyl)-N—((S)-1-cyclohexyl-3-(methylamino)propan-2-yl)piperidine-1-carboxamide], the pIC50 was more than 7.30.

Turning to `CNC[C@H](CC1CCCCC1)NC(=O)N1CCC[C@@H]([C@H](CCCNC(=O)OC)c2cccc(F)c2)C1` [I*-22a, methyl (S)-4-((S)-1-((S)-1-cyclohexyl-3-(methylamino)propan-2-ylcarbamoyl)piperidin-3-yl)-4-(3-fluorophenyl)butylcarbamate], the pIC50 was less than 7.30.

With `CNC[C@H](CC1CCOCC1)NC(=O)N1CCC[C@@H]([C@@H](OCCNC(=O)OC)c2ccc(F)c(Cl)c2F)C1` [I*-148a, methyl 2-((R)-(3-chloro-2,4-difluorophenyl)((R)-1-((S)-1-(methylamino)-3-(tetrahydro-2H-pyran-4-yl)propan-2-ylcarbamoyl)piperidin-3-yl)methoxy)ethylcarbamate], the pIC50 was less than 7.30.

Regarding `CNCC(CC1CCCOC1)NC(=O)N1CCCC(C(O)(CCCNC(=O)OC)c2cccc(F)c2)C1` [I*-54a, methyl (S)-4-(3-fluorophenyl)-4-hydroxy-4-((3R)-1-((S)-1-(methylamino)-3-(tetrahydro-2H-pyran-3-yl)propan-2-ylcarbamoyl)piperidin-3-yl)butylcarbamate], the pIC50 was more than 7.30.

On to `CNC[C@H](C[C@H]1C[C@@H](C)O[C@@H](C)C1)NC(=O)N1CCC[C@@H]([C@@H](OCCNC(=O)OC)c2cccc(F)c2)C1` [I*-77a, methyl 2-((R)-((R)-1-((S)-1-((2S,4r,6R)-2,6-dimethyl-tetrahydro-2H-pyran-4-yl)-3-(methylamino)propan-2-ylcarbamoyl)piperidin-3-yl)(3-fluorophenyl)methoxy)ethylcarbamate], for which the pIC50 was less than 7.30.

For the molecule `CNC[C@H](CC1CCCCC1)NC(=O)N1CCCC[C@@H]([C@H](OCCNC(=O)OC)c2cccc(Cl)c2)C1` [I*-92a, methyl 2-((S)-(3-chlorophenyl)((R)-1-((S)-1-cyclohexyl-3-(methylamino)propan-2-ylcarbamoyl)azepan-3-yl)methoxy)ethylcarbamate], the pIC50 was less than 7.30.

Regarding `COC(=O)NCCO[C@@H](c1cccc(Cl)c1)[C@@H]1CCCN(C(=O)N[C@](C)(CN)CC2CCCCC2)C1` [I*-59a, methyl 2-((R)-((R)-1-((S)-1-amino-3-cyclohexyl-2-methylpropan-2-ylcarbamoyl)piperidin-3-yl)(3-chlorophenyl)methoxy)ethylcarbamate], the pIC50 was more than 8.00.

In the case of `CNC[C@H](CC1CCCCCC1)NC(=O)N1CCC[C@@H]([C@@H](OCCNC(=O)OC)c2cccc(Cl)c2)C1` [I*-84a, methyl 2-((R)-(3-chlorophenyl)((R)-1-((S)-1-cycloheptyl-3-(methylamino)propan-2-ylcarbamoyl)piperidin-3-yl)methoxy)ethylcarbamate], the pIC50 was more than 9.00.

For `CNC[C@H](CC1CCOCC1)NC(=O)N1CCC[C@@H]([C@@H](OCCNC(=O)OC)c2cc(F)cc(F)c2)C1` [I*-70a, methyl 2-((R)-(3,5-difluorophenyl)((R)-1-((S)-1-(methylamino)-3-(tetrahydro-2H-pyran-4-yl)propan-2-ylcarbamoyl)piperidin-3-yl)methoxy)ethylcarbamate], the pIC50 is more than 7.70.

On to `CNC[C@@H](NC(=O)N1CCC[C@@H]([C@@H](OCCNC(=O)OC)c2ccccc2)C1)[C@@H](O)C1CCCCC1` [I*-19a, methyl 2-((R)—((R)-1-((1S,2R)-1-cyclohexyl-1-hydroxy-3-(methylamino)propan-2-ylcarbamoyl)piperidin-3-yl)(phenyl)methoxy)ethylcarbamate], for which the pIC50 was more than 8.00.

Turning to `CN[C@H](CNC(=O)N1CCC[C@@H]([C@@H](OCCNC(=O)OC)c2cccc(Cl)c2)C1)C[C@H]1CCCCOC1` [I*-110a, methyl 2-((R)-(3-chlorophenyl)((R)-1-((S)-2-(methylamino)-3-((R)-oxepan-3-yl)propylcarbamoyl)piperidin-3-yl)methoxy)ethylcarbamate], the pIC50 was more than 9.00.

On to `CNC[C@H](CC1CCCCC1)NC(=O)N1CCC[C@@H]([C@@H](OCCNC(=O)OC)c2ccccc2)C1` (mixture of isomers) [I*-2a, methyl 2-((R)—((R)-1-((±)-1-cyclohexyl-3-(methylamino)propan-2-ylcarbamoyl)piperidin-3-yl)(phenyl)methoxy)ethylcarbamate], for which the negative logarithm of the IC50 (pIC50) is more than 8.00.
